This note sets out measurements from US7915297B2, “Isoxazole derivatives and use thereof” (SK Holdings Co., Ltd., priority 2005, dated 2011).

In assay [1] the test system is Wnt/β-catenin signaling (β-catenin activity) in HEK293 cell line. The experiment in a line: Cell-based Wnt agonist screening, TCF luciferase reporter, HEK293 (TCF-FL). Also noted: species or system human. The following applies: % of LiCl (20 mM); for Emax at 30 µM: Conc. 30 μM; for Emax at 15 µM: Conc. 15 μM; for Emax at 120 µM: Conc. 120 μM. The source says:
(§1) In order to measure the in vitro activity of compounds of the present invention, two human cancer cell lines, HEK293 and SW480, which have intact Wnt signaling and show APC gene mutation in the Wnt signaling pathway, respectively, were used.
(§2) For evaluating the activity of wnt/β-catenin signaling in the cancer cell lines, gene as illustrated in FIG. 1 having β-catenin-binding sites of the Tcf/Lef transcriptional control protein (5 sites of TCF, 5X TCF) and having a fire fly luficerase as a marker protein ascertainable the activity of 5X TCF was introduced into the cells. Treatment with G418 led monoclones of the cell lines, in which the genes were permanently expressed, so as to construct a cell-based Wnt agonist screening system. […] For comparison with the activity of the isoxazole derivatives as Wnt agonists, lithium chloride (LiCl), acting as a positive control for the cell-based Wnt agonist screening system, was used to determine the expression level of the luciferase, and the results are shown in FIG. 3.
(§3) The cell lines, in which a cell-based Wnt agonist screening system was constructed, were cultured in RPMI 1640 media supplemented with penicillin-streptomycin (100 Units/mL) and heat-inactivated 5% fetal bovine serum under standard culture conditions (5% CO2, 37° C., 100% relative humidity). […] The suspension was diluted with the same medium to adjust the cell count to 8,000˜15,000 cells per well and was moved then in a 96-well microtiter plate. After being incubated for 24 hrs, the cells were treated with various concentrations of the isoxazole derivatives synthesized in Preparation Examples. Incubation for an additional 24 hours was followed by the quantitative analysis of luciferase activity using a Luciferase Assay kit (Promega, U.S.A.) according to the protocol described in the manual provided by the manufacturer. Data on the activities of the isoxazole derivatives thus synthesized are given in Tables 34 to 43, and are expressed as percentages relative to the activity of the positive control LiCl (20 mM), a well-known agonist of Wnt signaling.

Assay [2] relates to Wnt/β-catenin signaling (β-catenin activity) in SW480 cell line. Briefly: Cell-based Wnt agonist screening, TCF luciferase reporter, SW480 (TCF-FL). Also noted: species or system human. The following applies: % of LiCl (20 mM); for Emax at 30 µM: Con. 30 μM; for Emax at 120 µM: Con. 120 μM; for Emax at 15 µM: Con. 15 μM; for Emax at 60 µM: Con. 60 μM.
Source text: as §1, §2, §3

[3] abbreviates: Homo sapiens, HEK293, 24 h, 24 h, read-out: Max. Activity (%).
Where [4] appears, read: Homo sapiens, 24 h, read-out: Max. Activity (%).

Bounds are passed on as bounds.

On to `CCc1c(C(=O)NCCCn2ccnc2)noc1-c1ccco1` [Derivative (66), 4-ethyl-5-furan-2-yl-isoxazole-3-carboxylic acid (3-imidazol-1-yl-propyl)-amide], for which the Emax at 30 µM in assay [1] (setting [3]) and in assay [2] (setting [4]) was less than 20% in each case.
On to `O=C(NCCCn1ccnc1)c1cc(-c2cccc(O)c2)on1` [Derivative (106), 5-(3-hydroxy-phenyl)-isoxazole-3-carboxylic acid (3-imidazol-1-yl-propyl)-amide], for which the Emax at 7.5 µM in assay [1] (Homo sapiens, HEK293, 24 h, 24 h, Conc. 7.5 μM, read-out: Max. Activity (%)) amounted to 29%. Besides, the Emax at 30 µM in assay [1] (setting [3]) and in assay [2] (setting [4]) was 277% throughout.
Consider `O=C(NCCn1ncnn1)c1cc(-c2ccc(F)cc2)on1` [Derivative (91), 5-(4-fluoro-phenyl)-isoxazole-3-carboxylic acid (2-tetrazol-2-yl-ethyl)-amide], for which the Emax at 30 µM in assay [1] (setting [3]) and in assay [2] (setting [4]) was 103% each time.
For the molecule `Cc1cn(CCCNC(=O)c2cc(-c3ccco3)on2)cn1` [Derivative (56), 5-furan-2-yl-isoxazole-3-carboxylic acid [3-(4-methyl-imidazol-1-yl)-propyl]-amide], in assay [1] (setting [3]), the Emax at 15 µM is 58% and the Emax at 30 µM was less than 20%. For the same molecule, the Emax at 600 µM in assay [2] (Homo sapiens, 24 h, Con. 600 μM, read-out: Max. Activity (%)) was 650%.
As for `O=C(NCCCn1ccnc1)c1cc(-c2cccc(F)c2)on1` [Derivative (82), 5-(3-fluoro-phenyl)-isoxazole-3-carboxylic acid (3-imidazol-1-yl-propyl)-amide], the Emax at 120 µM in assay [1] (setting [3]) and in assay [2] (setting [4]) was 67% in each case.
For `O=C(NCCc1ccc([N+](=O)[O-])cc1)c1cc(-c2ccco2)on1` [Derivative (27), 5-furan-2-yl-isoxazole-3-carboxylic acid [2-(4-nitro-phenyl)-ethyl]-amide], the Emax at 30 µM in assay [1] (setting [3]) and in assay [2] (setting [4]) was less than 20% throughout.
Regarding `[Cl-].[Li+]` [LiCl, lithium chloride, reference compound], the “Max. Activity (%)” value in assay [1] (Conc. 20000 μM) and in assay [2] (Con. 20000 μM) was 100% in each case.
Consider `O=C(NCCCn1ccnc1)c1cc(-c2ccccn2)on1` [Derivative (75), 5-pyridin-2-yl-isoxazole-3-carboxylic acid (3-imidazol-1-yl-propyl)-amide], for which the Emax at 30 µM in assay [1] (setting [3]) and in assay [2] (setting [4]) was less than 20% each time.
For the molecule `O=C(NCCc1ccc(F)cc1)c1cc(-c2ccco2)on1` [Derivative (18), 5-furan-2-yl-isoxazole-3-carboxylic acid [2-(4-fluoro-phenyl)-ethyl]-amide], the Emax at 30 µM in assay [1] (setting [3]) is less than 20%. Moreover, in assay [2] (setting [4]), the Emax at 15 µM worked out at 149%.
Take `COc1cccc(-c2cc(C(=O)NCCCn3ccnc3)no2)c1` [Derivative (100), 5-(3-methoxy-phenyl)-isoxazole-3-carboxylic acid (3-imidazol-1-yl-propyl)-amide]: the Emax at 120 µM in assay [1] (setting [3]) and in assay [2] (setting [4]) was 59% each time.
As to `O=C(NCCc1ccccc1)c1cc(-c2ccco2)on1` [Derivative (5), 5-furan-2-yl-isoxazole-3-carboxylic acid phenethyl-amide], the figures for the Emax at 30 µM in assay [1] (setting [3]) and in assay [2] (setting [4]) were less than 20% and 148%, respectively.
Take `O=C(NCCn1ccnc1)c1cc(-c2ccco2)on1` [Derivative (33), 5-furan-2-yl-isoxazole-3-carboxylic acid (2-imidazol-1-yl-ethyl)-amide]: in assay [1] (setting [3]), the Emax at 15 µM turned out to be 37%. Also, the Emax at 120 µM in assay [2] (setting [4]) was 580%.
Take `O=C(NCCCn1cnc(Br)c1)c1cc(-c2ccco2)on1` [Derivative (60), 5-furan-2-yl-isoxazole-3-carboxylic acid [3-(4-bromo-imidazol-1-yl)-propyl]-amide]: the Emax at 30 µM in assay [1] (setting [3]) was less than 20%; in assay [2] (setting [4]) it was 196%.
On the same counts, the results for `Nc1ccc(CCNC(=O)c2cc(-c3ccco3)on2)cc1` [Derivative (26), 5-furan-2-yl-isoxazole-3-carboxylic acid [2-(4-amino-phenyl)-ethyl]-amide] are less than 20% and less than 20%.
As to `COc1ccccc1-c1cc(C(=O)NCCCn2ccnc2)no1` [Derivative (99), 5-(2-methoxy-phenyl)-isoxazole-3-carboxylic acid (3-imidazol-1-yl-propyl)-amide], the Emax at 120 µM in assay [1] (setting [3]) and in assay [2] (setting [4]) was 37% throughout.
On to `O=C(Nc1ccccc1O)c1cc(-c2ccco2)on1` [Derivative (2), 5-furan-2-yl-isoxazole-3-carboxylic acid (2-hydroxy-phenyl)-amide], for which the Emax at 30 µM in assay [1] (setting [3]) and in assay [2] (setting [4]) was less than 20% in each case.
On to `COc1cccc(CCNC(=O)c2cc(-c3ccco3)on2)c1` [Derivative (20), 5-furan-2-yl-isoxazole-3-carboxylic acid [2-(3-methoxy-phenyl)-ethyl]-amide], for which the Emax at 30 µM in assay [1] (setting [3]) is less than 20%. Also, the Emax at 60 µM in assay [2] (setting [4]) amounted to 528%.
In the case of `O=C(NCCCn1ccnc1)c1cc(-c2cccc([N+](=O)[O-])c2)on1` [Derivative (113), 5-(3-nitro-phenyl)-isoxazole-3-carboxylic acid (3-imidazol-1-yl-propyl)-amide], the Emax at 120 µM in assay [1] (setting [3]) and in assay [2] (setting [4]) was 46% in each case.
Regarding `O=C(NCCc1ccncc1)c1cc(-c2cccc(O)c2)on1` [Derivative (108), 5-(3-hydroxy-phenyl)-isoxazole-3-carboxylic acid (2-pyridin-4-yl-ethyl)-amide], the Emax at 15 µM in assay [1] (setting [3]) and in assay [2] (setting [4]) was 600% throughout. Besides, in assay [1] (setting [3]), the Emax at 30 µM was less than 20%.
With `Nc1ccccc1NC(=O)c1cc(-c2ccco2)on1` [Derivative (3), 5-furan-2-yl-isoxazole-3-carboxylic acid (2-amino-phenyl)-amide], the Emax at 30 µM in assay [1] (setting [3]) is less than 20%. For the same molecule, the Emax at 40 µM in assay [2] (Homo sapiens, 24 h, Con. 40 μM, read-out: Max. Activity (%)) came to 331%.
`O=C(NCCc1cccnc1)c1cc(-c2ccco2)on1` [Derivative (11), 5-furan-2-yl-isoxazole-3-carboxylic acid (2-pyridin-3-yl-ethyl)-amide]: the Emax at 30 µM in assay [1] (setting [3]) is 61%. Besides, the Emax at 60 µM in assay [2] (setting [4]) amounted to 625%.
In the case of `O=C(NCCCCn1ccnc1)c1cc(-c2ccco2)on1` [Derivative (34), 5-furan-2-yl-isoxazole-3-carboxylic acid (4-imidazol-1-yl-butyl)-amide], the Emax at 120 µM in assay [1] (setting [3]) amounted to 44%; in assay [2] (setting [4]), 120%.
On to `O=C(NCCCn1ccnc1)c1cc(-c2ccc(O)cc2)on1` [Derivative (107), 5-(4-hydroxy-phenyl)-isoxazole-3-carboxylic acid (3-imidazol-1-yl-propyl)-amide], for which the Emax at 30 µM in assay [1] (setting [3]) was 28%. In addition, the Emax at 60 µM came out at 584% in assay [1] (Homo sapiens, HEK293, 24 h, 24 h, Conc. 60 μM, read-out: Max. Activity (%)) and 584% in assay [2] (setting [4]).
In the case of `Cc1cncn1CCCNC(=O)c1cc(-c2ccco2)on1` [Derivative (57), 5-furan-2-yl-isoxazole-3-carboxylic acid [3-(5-methyl-imidazol-1-yl)-propyl]amide], the Emax at 30 µM in assay [1] (setting [3]) and in assay [2] (setting [4]) was less than 20% each time.
As to `Cc1ccccc1-c1cc(C(=O)NCCCn2ccnc2)no1` [Derivative (78), 5-o-tolyl-isoxazole-3-carboxylic acid (3-imidazol-1-yl-propyl)-amide], the Emax at 120 µM in assay [1] (setting [3]) and in assay [2] (setting [4]) was 42% in each case.
Turning to `O=C(NCCc1ccccc1F)c1cc(-c2ccco2)on1` [Derivative (16), 5-furan-2-yl-isoxazole-3-carboxylic acid [2-(2-fluoro-phenyl)-ethyl]-amide], the values for the Emax at 30 µM in assay [1] (setting [3]) and in assay [2] (setting [4]) were less than 20% and 327%, respectively.
Consider `O=C(NCCCn1ccnc1)c1cc(-c2ccccc2F)on1` [Derivative (81), 5-(2-fluoro-phenyl)-isoxazole-3-carboxylic acid (3-imidazol-1-yl-propyl)-amide], for which the Emax at 120 µM in assay [1] (setting [3]) and in assay [2] (setting [4]) was 869% in each case.
